Where two headings read alike, the source gives them in different places.
What was measured:
DIO C57BL/6J mice [1] = assay: Sleep study (plethysmography) in diet-induced obese mice, mouse model of OSA; assay type: in vivo; settings: IN leptin 0.4 mg/kg single dose
DIO C57BL/6J mice [2] = test system: DIO C57BL/6J mice
[3] = test system: STAT3 phosphorylation (pSTAT3) via LepR^b; assay: Leptin signaling by STAT3 phosphorylation (pSTAT3) immunofluorescent staining of brain sections; assay type: in vivo, mouse; settings: DIO mice
lean C57BL/6J mice [4] = assay: Blood pressure by telemetry during SC leptin infusion; assay type: in vivo, mouse
Experimental: Blood pressure was measured by telemetry (DSI) implanted in the left femoral artery of freely behaving lean C57BL/6J mice at baseline and during leptin infusion (120 μg/day for 3 days via a SC pump) before and after carotid body (CB) denervation or sham surgery.

[5] = Plasma leptin levels after IN and IP leptin; assay type: in vivo, mouse; settings: IN leptin, 1, 3 and 6 hours vs baseline, n=4
Experimental: FIG. 18 depicts a graph showing plasma leptin levels measured 1, 3, and 6 hours after IN and IP leptin administrations, as compared to baseline, n=4, for each treatment. *p<0.05.

[6] = test system: hypoglossal neurons (HGNs); assay: Excitatory post-synaptic currents (EPSCs) recorded in vitro from HGNs; assay type: cell-based, mouse; settings: for spontaneous excitatory post-synaptic currents (EPSCs) in HGNs: FIG. 7, DAMGO then leptin added to DAMGO; for EPSC frequency in HGNs: FIG. 16, n=7, DAMGO focally applied, then 200 nM leptin co-infusion
[7] = Leptin detection in brain tissue by ELISA after IN administration; assay type: in vivo, mouse; settings: IN leptin 0.8 mg/kg in 1% BSA, 20 minutes, vs IN vehicle
Experimental: To determine the effect of intranasal (IN) leptin in the brain, leptin detection in brain tissue by ELISA was assessed after IN administration. In brief, male lean C57BL/6J mice (30 g of weight), were treated with IN leptin (24 μl) at 0.8 mg/kg in 1% BSA or 1% BSA and sacrificed 20 minutes later. Brains were extracted, then the olfactory bulbs, hypothalami and medullas were isolated, quick frozen in liquid nitrogen and stored at −80° C. For leptin level measurements, brain tissue was homogenized in 160 mM KCL, 25 mM HEPES, 0.2% Triton X-100 and protease inhibitors. Total protein concentrations were determined using a BioRad DC Protein kit and ELISA for leptin was performed with a Millipore kit.

[8] = test system: hypoglossal motoneurons (HGN); assay: HGN firing per fictive inspiratory burst in bursting slice preparation; assay type: cell-based, mouse; settings: DAMGO 500 nM; then leptin 200 nM with DAMGO; prior to DAMGO 3-5
lean C57BL/6J mice [9] = assay: Barometric plethysmography during subcutaneous leptin infusion in lean mice; assay type: in vivo, mouse; settings: SC osmotic pump leptin 0.2 mg/kg/hour
Description: Leptin increases minute ventilation, stimulates control of breathing and reverses UAO during sleep in leptin deficient ob/ob mice as shown in Pho et al., Journal of Applied Physiology 120, 78-86 (2016); Yao et al., Sleep 39, 1097-106 (2016); and O'Donnell et al., American Journal of Respiratory & Critical Care Medicine 159, 1477-1484 (1999), the disclosures of which are incorporated herein in their entirety. As such, it was proposed that high doses of leptin also stimulate ventilation and control of breathing in lean C57BL/6J mice. […] In six mice, a subcutaneous osmotic pump (DURECT, Cupertino, Calif., USA) filled with saline was implanted and baseline minute ventilation (VE) and the hypoxic ventilatory response (HVR) were measured by exposing mice to room air and 10% O2. […] VE normalized to body weight and the hypoxic ventilatory response (HVR) was calculated as the ratio of [VE (10% O2)−VE (20.9% O2) to the change in FiO2 (ΔFiO2=10.9% between normoxia and hypoxia) and reported as ΔVE/ΔFiO2. Subsequently, a subcutaneous osmotic pump for leptin infusion (0.2 mg/kg/hour) was implanted and the HVR was measured. […]

[10] = test system: LepR^b+ neurons in the dorsomedial hypothalamus (DMH); assay type: cell-based, mouse
[11] = test system: hypoglossal motoneurons (HGN); assay: Excitatory post-synaptic currents in HGNs evoked by photoexcitation of ChR2 fibers from LepR^b+ neurons; assay type: cell-based, mouse
[12] = SC leptin 120 μg/day for 3 days

Molecule: leptin
- ODI (number of oxyhemoglobin desaturations ≥4%/hour) (DIO C57BL/6J mice [1]): dramatic decrease
- maximal inspiratory flow (Vimax) during flow limited obstructed breathing (DIO C57BL/6J mice [1]): increased
- minute ventilation (VE) during flow limited obstructed breathing (DIO C57BL/6J mice [1]): increased
- non-flow limited breathing (DIO C57BL/6J mice [1]): increased
- IFL prevalence (frequency of upper airway obstruction) (DIO C57BL/6J mice [2]; mouse, in vivo): decreased
- apnea-hypopnea index (AHI) (DIO C57BL/6J mice [2]; mouse, in vivo): dramatically reduced
- frequency of upper airway obstruction (IFL breaths), NREM sleep (DIO C57BL/6J mice [2]; mouse, in vivo): decreased
- inspiratory flow limitation (IFL) (DIO C57BL/6J mice [2]; mouse, in vivo): markedly improved
- leptin effects on apneas, VE, IFL frequency, VImax and VE during IFL (DIO C57BL/6J mice [2]; mouse, in vivo): no longer significant
- maximal inspiratory flow (Vimax) during IFL (DIO C57BL/6J mice [2]; mouse, in vivo): increases
- maximal inspiratory flow (Vimax) during obstructed (IFL) breathing, NREM sleep (DIO C57BL/6J mice [2]; mouse, in vivo): reversals of morphine-induced reductions
- minute ventilation (VE), non-flow limited respiration, NREM sleep (DIO C57BL/6J mice [2]; mouse, in vivo): increase
- minute ventilation during IFL (VE IFL) (DIO C57BL/6J mice [2]; mouse, in vivo): increases
- minute ventilation during obstructed (IFL) breathing, NREM sleep (DIO C57BL/6J mice [2]; mouse, in vivo): reversals of morphine-induced reductions
- non-flow limited breathing (NFL), respiratory depression (DIO C57BL/6J mice [2]; mouse, in vivo): prevented
- number of apneic events during NREM sleep (DIO C57BL/6J mice [2]; mouse, in vivo): decreased
- respiratory depression (minute ventilation, VE) (DIO C57BL/6J mice [2]; mouse, in vivo): prevented
- respiratory rate (DIO C57BL/6J mice [2]; mouse, in vivo): increasing
- respiratory rate during NFL breathing (DIO C57BL/6J mice [2]; mouse, in vivo): did not change
- tidal volume (VT) (DIO C57BL/6J mice [2]; mouse, in vivo): increasing
- tidal volume during NFL breathing (DIO C57BL/6J mice [2]; mouse, in vivo): 0.44±0.03
- signaling (STAT3 phosphorylation) in dorsal medulla, RVLM, CC, DMV, NA, XII ([3]; IN leptin single dose, one hour): increased
- number of pSTAT3-positive cells in the hypothalamus and medulla ([3]; IN leptin vs IP leptin and vehicle groups): highest
- signaling (STAT3 phosphorylation) in dorsal medulla or RVLM ([3]; IP leptin single dose, one hour): no effect
- increase in blood pressure at night (lean C57BL/6J mice [4]; [12]): 16 mm Hg
- increase in blood pressure during the day (9 am-9 pm, light phase) (lean C57BL/6J mice [4]; [12]): 13 mm Hg
- leptin-mediated increase in blood pressure after carotid body (CB) denervation (lean C57BL/6J mice [4]; SC leptin 120 μg/day, not abolished by sham surgery): completely abolished
- plasma leptin levels [5]: did not increase
- spontaneous excitatory post-synaptic currents (EPSCs) in HGNs [6]: successfully reversed
- EPSC frequency in HGNs [6]: restored
- leptin levels in the hypothalamus [7]: strong increase
- leptin levels in the medulla [7]: significantly increased
- leptin levels in the olfactory bulb [7]: significantly increased
- action potentials in HGNs associated with each burst [8]: 3-4 action potentials
- hypoxic ventilatory response (HVR, ΔVE/ΔFiO2) (lean C57BL/6J mice [9]; 10% O2 vs room air, saline pump 0.23): 0.31 ml/minutes/grams/ΔFiO2
- minute ventilation (VE) (lean C57BL/6J mice [9]; wakefulness, saline pump 1.1): 1.5 ml/minutes/grams
- effect on LepR^b+ neurons (firing) [10]: excited

Molecule: CN1CC[C@]23c4c5ccc(O)c4O[C@H]2[C@@H](O)C=C[C@H]3[C@H]1C5 [morphine, reference compound]
- IFL prevalence (frequency of upper airway obstruction) (DIO C57BL/6J mice [2]; FIG. 3B experiment, DIO mice n=4, morphine 10 mg/kg): 39.6±9.3 % of all breaths
- maximal inspiratory flow (Vimax) during IFL (DIO C57BL/6J mice [2]; FIG. 3C, DIO mice n=4, morphine 10 mg/kg): decreasing
- minute ventilation during IFL (VE IFL) (DIO C57BL/6J mice [2]; FIG. 3D, DIO mice n=4, morphine 10 mg/kg): decreasing
- respiratory rate during NFL breathing (DIO C57BL/6J mice [2]; FIG. 3E experiment, morphine 10 mg/kg): decreased
- non-flow limited breathing (NFL), respiratory depression (DIO C57BL/6J mice [2]; FIG. 3E, DIO mice n=4, morphine 10 mg/kg): suppressed
- respiratory depression (minute ventilation, VE) (DIO C57BL/6J mice [2]; IP morphine 80 mg/kg, DIO mice): induced respiratory depression
- number of apneic events during NREM sleep (DIO C57BL/6J mice [2]; NREM sleep, n=9, morphine 10 mg/kg, baseline 13.9±3.7): 91.5±20.0
- frequency of upper airway obstruction (IFL breaths), NREM sleep (DIO C57BL/6J mice [2]; morphine 10 mg/kg, baseline 11.9±5.5%): 56.8±4.8 % of all breaths
- minute ventilation during obstructed (IFL) breathing, NREM sleep (DIO C57BL/6J mice [2]; n=5, morphine 10 mg/kg): significantly decreased
- maximal inspiratory flow (Vimax) during obstructed (IFL) breathing, NREM sleep (DIO C57BL/6J mice [2]; n=5, morphine 10 mg/kg, baseline 3.4±0.4): 2.3 ± 0.5 mL/min
- minute ventilation (VE), non-flow limited respiration, NREM sleep (DIO C57BL/6J mice [2]; n=9, morphine 10 mg/kg, baseline 1.2±0.1): 0.7 ± 0.1 mL/min/g
- inspiratory flow limitation (IFL) (DIO C57BL/6J mice [2]; sub-lethal IP morphine 80 mg/kg, DIO mice): induced severe inspiratory flow limitation

Molecule: N#Cc1cc2c(cc1[N+](=O)[O-])=NC(=O)C(=O)N=2 [CNQX, 6-cyano-7-nitroquinoxaline-2,3-dione]
- photoexcitation-evoked excitatory post-synaptic currents in HGNs ([11]; 50 μM APV and 50 μM CNQX applied together): blunted, but not blocked

Molecule: N[C@H](CCCP(=O)(O)O)C(=O)O [APV, (2R)-amino-5-phosphonovaleric acid]
- photoexcitation-evoked excitatory post-synaptic currents in HGNs [11]: blunted, but not blocked

Molecule: C[C@@H](NC(=O)[C@@H](N)Cc1ccc(O)cc1)C(=O)NCC(=O)N(C)[C@@H](Cc1ccccc1)C(=O)NCCO [DAMGO, [D-Ala^2, N-MePhe^4, Gly-ol]-enkephalin, reference compound]
- spontaneous excitatory post-synaptic currents (EPSCs) in HGNs [6]: rapidly depressed
- EPSC frequency in HGNs [6]: significantly reduced
- action potentials in HGNs associated with each burst [8]: 2-3 action potentials
